Measured values: PubChem BioAssay AID248 (DTP/NCI, 2004)
Values joined by “and” are separate entries in the source; they are usually repeats but may differ in a detail not shown here. Equal entries are not always repeated. Toxic doses and inconclusive results are not listed.

System: L1210 leukemia ip in BDF1 mice, survival T/C
Assay: NCI In Vivo Anticancer Drug Screen. Data for tumor model L1210 Leukemia (intraperitoneal) in B6D2F1 (BDF1) mice
Details: endpoint: mean survival time, higher = longer survival
Summary of the method: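 In this screen, tumor-bearing mice given compound are compared to those given vehicle, and their survival values are reported as a treated-to-control quotient.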

[1] = dose: 100.0 mg/kg/injection, schedule: Q01DX009 (ip), vehicle: Klucel (hydroxypropylcellulose) (HPC)
[2] = dose: 100.0 mg/kg/injection, schedule: Q04DX003 (ip), vehicle: Klucel (hydroxypropylcellulose) (HPC)
[3] = dose: 200.0 mg/kg/injection, schedule: Q01DX009 (ip), vehicle: Klucel (hydroxypropylcellulose) (HPC)
[4] = dose: 200.0 mg/kg/injection, schedule: Q04DX003 (ip), vehicle: Klucel (hydroxypropylcellulose) (HPC)
[5] = dose: 400.0 mg/kg/injection, schedule: Q01DX009 (ip), vehicle: Klucel (hydroxypropylcellulose) (HPC)
[6] = dose: 400.0 mg/kg/injection, schedule: Q04DX003 (ip), vehicle: Klucel (hydroxypropylcellulose) (HPC)
[7] = dose: 100.0 mg/kg/injection, schedule: Q04DX003 (ip), vehicle: saline
[8] = dose: 200.0 mg/kg/injection, schedule: Q04DX003 (ip), vehicle: saline
[9] = dose: 100.0 mg/kg/injection, schedule: Q01DX001 (ip), vehicle: saline
[10] = dose: 200.0 mg/kg/injection, schedule: Q01DX001 (ip), vehicle: saline
[11] = dose: 400.0 mg/kg/injection, schedule: Q01DX001 (ip), vehicle: saline
[12] = dose: 100.0 mg/kg/injection, schedule: Q04DX002 (ip), vehicle: Klucel (hydroxypropylcellulose) (HPC)

CN=C(NC)c1ccc(NC(=O)/C=C\c2ccc(C(=O)Nc3ccc(C(=NC)NC)cc3)cc2)cc1
T/C (dose: 0.23 mg/kg/injection, schedule: Q01DX Z (ip), vehicle: saline): 90 % of control | T/C (dose: 0.47 mg/kg/injection, schedule: Q01DX Z (ip), vehicle: saline): 114 % of control | T/C (dose: 0.5 mg/kg/injection, schedule: Q01DX006 (iv), vehicle: saline): 105 % of control | T/C (dose: 0.5 mg/kg/injection, schedule: Q01DX Z (ip), vehicle: saline): 104 % of control | T/C (dose: 0.5 mg/kg/injection, schedule: Q01DX Z (sc), vehicle: saline): 96 % of control | T/C (dose: 0.5 mg/kg/injection, schedule: Q02DX004 (im), vehicle: saline): 98 % of control | T/C (dose: 0.94 mg/kg/injection, schedule: Q01DX Z (ip), vehicle: saline): 120 % of control | T/C (dose: 1.0 mg/kg/injection, schedule: Q01DX006 (iv), vehicle: saline): 107 % of control | T/C (dose: 1.0 mg/kg/injection, schedule: Q01DX Z (ip), vehicle: saline): 118 % of control | T/C (dose: 1.0 mg/kg/injection, schedule: Q01DX Z (sc), vehicle: saline): 94 % of control | T/C (dose: 1.0 mg/kg/injection, schedule: Q02DX004 (im), vehicle: saline): 105 % of control | T/C (dose: 2.0 mg/kg/injection, schedule: Q01DX006 (iv), vehicle: saline): 100 % of control | T/C (dose: 2.0 mg/kg/injection, schedule: Q01DX Z (sc), vehicle: saline): 105 % of control | T/C (dose: 2.0 mg/kg/injection, schedule: Q02DX004 (im), vehicle: saline): 96 % of control | T/C (dose: 3.75 mg/kg/injection, schedule: Q01DX Z (ip), vehicle: saline): 248 % of control | T/C (dose: 4.0 mg/kg/injection, schedule: Q01DX006 (iv), vehicle: saline): 105 % of control | T/C (dose: 4.0 mg/kg/injection, schedule: Q01DX Z (ip), vehicle: saline): 209 % of control | T/C (dose: 4.0 mg/kg/injection, schedule: Q01DX Z (sc), vehicle: saline): 164 % of control | T/C (dose: 4.0 mg/kg/injection, schedule: Q02DX004 (im), vehicle: saline): 107 % of control | T/C (dose: 8.0 mg/kg/injection, schedule: Q01DX006 (iv), vehicle: saline): 116 % of control | T/C (dose: 8.0 mg/kg/injection, schedule: Q01DX Z (ip), vehicle: saline): 121 % of control | T/C (dose: 15.0 mg/kg/injection, schedule: Q01DX Z (ip), vehicle: saline): 86 % of control | T/C (dose: 15.0 mg/kg/injection, schedule: Q01DX Z (oral), vehicle: other): 97 % of control | T/C (dose: 16.0 mg/kg/injection, schedule: Q01DX004 (im), vehicle: saline): 123 % of control | T/C (dose: 16.0 mg/kg/injection, schedule: Q01DX006 (iv), vehicle: saline): 107 % of control | T/C (dose: 16.0 mg/kg/injection, schedule: Q01DX Z (ip), vehicle: saline): 107 % of control | T/C (dose: 16.0 mg/kg/injection, schedule: Q01DX Z (sc), vehicle: saline): 120 % of control | T/C (dose: 16.0 mg/kg/injection, schedule: Q02DX004 (im), vehicle: saline): 191 % of control | T/C (dose: 30.0 mg/kg/injection, schedule: Q01DX Z (oral), vehicle: other): 95 % of control | T/C (dose: 32.0 mg/kg/injection, schedule: Q01DX004 (im), vehicle: saline): 161 % of control | T/C (dose: 60.0 mg/kg/injection, schedule: Q01DX Z (oral), vehicle: other): 104 % of control | T/C (dose: 62.5 mg/kg/injection, schedule: Q## X009 (oral), vehicle: saline): 93 % of control | T/C (dose: 125.0 mg/kg/injection, schedule: Q## X010 (oral), vehicle: saline): 112 % of control | T/C (dose: 128.0 mg/kg/injection, schedule: Q01DX004 (im), vehicle: saline): 116 % of control | T/C (dose: 250.0 mg/kg/injection, schedule: Q## X010 (oral), vehicle: saline): 111 % of control | T/C (dose: 500.0 mg/kg/injection, schedule: Q## X009 (oral), vehicle: saline): 102 % of control

O=C1NC(O)C(O)N1 (centres undefined)
T/C [1]: 104 % of control | T/C [2]: 100 % of control | T/C [3]: 96 % of control | T/C [4]: 96 % of control | T/C [5]: 105 % of control | T/C [6]: 100 % of control

Cc1[nH]c(=O)[nH]c(=O)c1N(CCO)CCF
T/C [7]: 98 % of control | T/C [8]: 101 % of control | T/C (dose: 400.0 mg/kg/injection, schedule: Q04DX003 (ip), vehicle: saline): 97 % of control

Nc1nc(N)c2c(n1)[n+]([O-])c1ccccc1[n+]2[O-]
T/C [9]: 103 % of control | T/C [10]: 103 % of control | T/C [11]: 94 % of control

C(=N\N1CCN(/N=C/c2ccc3c(c2)OCO3)CC1)/c1ccc2c(c1)OCO2
T/C [9]: 104 % of control | T/C [10]: 102 % of control | T/C [11]: 96 % of control

C[CH2][Ge]1([CH2]C)[CH2]CC2(C[CH2]1)NC(=O)N(CCCN(C)C)C2=O
T/C (dose: 100.0 mg/kg/injection, schedule: Q04DX002 (ip), vehicle: saline): 100 % of control | T/C (dose: 200.0 mg/kg/injection, schedule: Q04DX002 (ip), vehicle: saline): 105 % of control

NC(=O)C(NC(=O)c1ccccc1)SCc1ccccc1 (centres undefined)
T/C (dose: 25.0 mg/kg/injection, schedule: Q04DX002 (ip), vehicle: Klucel (hydroxypropylcellulose) (HPC)): 98 % of control | T/C (dose: 50.0 mg/kg/injection, schedule: Q04DX002 (ip), vehicle: Klucel (hydroxypropylcellulose) (HPC)): 95 % of control | T/C [12]: 95 % of control

Cc1ccc2c(ccc3c[n+]4ccccc4c(C)c32)c1
T/C (dose: 12.5 mg/kg/injection, schedule: Q01DX001 (ip), vehicle: carboxymethylcellulose (CMC)): 107 % of control | T/C (dose: 25.0 mg/kg/injection, schedule: Q01DX001 (ip), vehicle: carboxymethylcellulose (CMC)): 96 % of control

Cc1ccnc(NC(=O)Nc2cc(F)ccc2F)c1
T/C [1]: 92 % of control and 103 % of control | T/C [12]: 101 % of control and 90 % of control | T/C [2]: 97 % of control | T/C [3]: 92 % of control and 89 % of control | T/C (dose: 200.0 mg/kg/injection, schedule: Q04DX002 (ip), vehicle: Klucel (hydroxypropylcellulose) (HPC)): 90 % of control | T/C [4]: 93 % of control | T/C [5]: 94 % of control and 98 % of control | T/C (dose: 400.0 mg/kg/injection, schedule: Q04DX002 (ip), vehicle: Klucel (hydroxypropylcellulose) (HPC)): 95 % of control and 90 % of control | T/C [6]: 87 % of control

O=CNC1CCCCC1
T/C (dose: 20.0 mg/kg/injection, schedule: Q01DX009 (ip), vehicle: saline with Tween-80): 93 % of control | T/C (dose: 40.0 mg/kg/injection, schedule: Q01DX001 (ip), vehicle: saline with Tween-80): 100 % of control | T/C (dose: 40.0 mg/kg/injection, schedule: Q01DX009 (ip), vehicle: saline with Tween-80): 93 % of control | T/C (dose: 80.0 mg/kg/injection, schedule: Q01DX001 (ip), vehicle: saline with Tween-80): 100 % of control | T/C (dose: 80.0 mg/kg/injection, schedule: Q01DX009 (ip), vehicle: saline with Tween-80): 91 % of control

CN(C)C(=S)Oc1ccc(S(=O)(=O)F)c(Cl)c1Cl
T/C (dose: 25.0 mg/kg/injection, schedule: Q04DX002 (ip), vehicle: saline with Tween-80): 92 % of control | T/C (dose: 50.0 mg/kg/injection, schedule: Q04DX002 (ip), vehicle: saline with Tween-80): 92 % of control | T/C (dose: 100.0 mg/kg/injection, schedule: Q04DX002 (ip), vehicle: saline with Tween-80): 86 % of control

O=[N+]([O-])c1ccc2scc3c4ccccc4nc-3c2c1
T/C (dose: 4.37 mg/kg/injection, schedule: Q01DX009 (ip), vehicle: Klucel (hydroxypropylcellulose) (HPC)): 95 % of control | T/C (dose: 8.75 mg/kg/injection, schedule: Q01DX009 (ip), vehicle: Klucel (hydroxypropylcellulose) (HPC)): 101 % of control | T/C (dose: 12.5 mg/kg/injection, schedule: Q04DX003 (ip), vehicle: saline): 101 % of control | T/C (dose: 17.5 mg/kg/injection, schedule: Q01DX009 (ip), vehicle: Klucel (hydroxypropylcellulose) (HPC)): 89 % of control | T/C (dose: 25.0 mg/kg/injection, schedule: Q04DX003 (ip), vehicle: saline): 101 % of control

Cc1ccc(S(=O)(=O)N(CCCc2c(C)ncnc2Cl)c2ccccc2)cc1
T/C (dose: 50.0 mg/kg/injection, schedule: Q01DX001 (ip), vehicle: saline): 101 % of control | T/C [9]: 92 % of control | T/C [10]: 98 % of control | T/C [11]: 95 % of control

CCCCOCCOCCOc1ccc(C(=O)O)cc1
T/C (dose: 50.0 mg/kg/injection, schedule: Q01DX009 (ip), vehicle: acetone): 102 % of control | T/C (dose: 100.0 mg/kg/injection, schedule: Q01DX009 (ip), vehicle: acetone): 97 % of control | T/C [7]: 94 % of control | T/C (dose: 200.0 mg/kg/injection, schedule: Q01DX009 (ip), vehicle: acetone): 102 % of control | T/C [8]: 94 % of control
